Measurements as given in patent publication US5192781A, “Thiazole derivatives which are angiotensin II receptor antagonists, their methods of preparation and pharmaceutical compositions in which they are present” (Laboratoires UPSA, priority 1991, dated 1993).

Test system: rat adrenal angiotensin II receptors
Experiment: displacement of radioligand [^125 I]-SIAII specifically bound to rat adrenal angiotensin II receptors
Assay type: binding
Conditions: 60 min at 25° C.
Method: The affinity of the products of the Examples for angiotensin II receptors is evaluated by the technique of displacing a radioligand specifically bound to rat adrenal angiotensin II receptors.
An aliquot of a rat adrenal gland homogenate incubates in the presence of a single concentration of [^125 I]-SIAII (Sar^1,Tyr^4,Ile^8 -angiotensin II), which is an angiotensin II receptor antagonist, and two concentrations of competing agents (10^-5 M, 10^-7 M) for 60 min at 25° C.
The reaction is completed by the addition of a buffer, followed by rapid filtration through glasspaper filters. The non-specific binding is determined in the presence of angiotensin II.
The results are expressed, for the concentrations tested, as the percentage displacement of the radioligand specifically bound to the adrenal angiotensin II receptors.

| % displacement of the labeled ligand (1E-5M competing agent, 10 µM) | % displacement of the labeled ligand (1E-7M competing agent, 0.1 µM) | Structure (SMILES) |
| --- | --- | --- |
| 88% | 59% | CCCCCc1nc(C)sc1Cc1ccc(NC(=O)c2ccccc2S(=O)(=O)O)cc1 [Example 40, 2-[4-(2-methyl-4-pentylthiazol-5-ylmethyl)phenylaminocarbonyl]benzosulfonic acid] |
| 58% | 0% | Cc1nc(C)c(Cc2ccc(NC(=O)c3ccccc3C(=O)O)cc2)s1 [Example 4, 2-[4-((2,4-Dimethylthiazol-5-yl)methyl)phenylaminocarbonyl]benzoic acid] |
| 87% | 9% | CCCc1nc(N)sc1Cc1ccc(NC(=O)c2c(Cl)ccc(Cl)c2C(=O)O)cc1 [Example 41, 2-[4-(2-Amino-4-propylthiazol-5-ylmethyl)phenylaminocarbonyl]-3,6-dichlorobenzoic acid] |
| 91% | 44% | CCCCCc1nc(N)sc1Cc1ccc(NC(=O)c2ccccc2S(=O)(=O)O)cc1 [Example 44, 2-[4-(2-Amino-4-pentylthiazol-5-ylmethyl)phenylaminocarbonyl]benzosulfonic acid] |
| 89% | 5% | CCCc1nc(NCC(=O)OC)sc1Cc1ccc(NC(=O)c2ccccc2S(=O)(=O)O)cc1 [Example 22, Methyl (4-propyl-5-(4-(2-sulfobenzoylamino)benzyl)thiazol-2-yl)aminoacetate] |
| 35% | 0% | CCOC(=O)CNc1nc(C)c(Cc2ccc(NC(=O)c3ccccc3C(=O)O)cc2)s1 [Example 7, Ethyl (4-methyl-5-(4-(2-carboxybenzoylamino)benzyl)thiazol-2-yl)aminoacetate] |
| 86% | 22% | CCCc1nc(CC(=O)OC)sc1Cc1ccc(NC(=O)c2ccccc2S(=O)(=O)O)cc1 [Example 26, 2-[4-(2-methoxycarbonylmethyl-4-propylthiazol-5-ylmethyl)phenylaminocarbonyl]benzosulfonic acid] |
| 84% | 29% | CCCc1nc(CNC(=O)OCC)sc1Cc1ccc(NC(=O)c2ccccc2S(=O)(=O)O)cc1 [Example 30, 2-[4-(2-Ethoxycarbonylaminomethyl-4-propylthiazol-5-ylmethyl)phenylaminocarbonyl]benzosulfonic acid] |
| 89% | 55% | CCCc1nc(COC)sc1Cc1ccc(NC(=O)c2ccccc2S(=O)(=O)O)cc1 [Example 19, 2-[4-(2-Methoxymethyl-4-propylthiazol-5-yl-methyl)phenylaminocarbonyl]benzosulfonic acid] |
| 84% | 3% | CCCc1nc(NC(C)=O)sc1Cc1ccc(NC(=O)c2ccccc2S(=O)(=O)O)cc1 [Example 36, 2-[4-(2-Acetamido-4-propylthiazol-5-yl-methyl)phenylaminocarbonyl]benzosulfonic acid] |
| 79% | 0% | CCCc1nc(SCCCC(=O)OCC)sc1Cc1ccc(NC(=O)c2ccccc2S(=O)(=O)O)cc1 [Example 15, Ethyl 4-[[4-propyl-5-(4-(2-sulfobenzoylamino)benzyl)thiazol-2-yl]mercapto]butyrate] |
| 85% | 27% | CCCc1nc(N)sc1Cc1ccc(NC(=O)c2ccccc2S(=O)(=O)O)cc1 [Example 33, 2-[4-(2-Amino-4-propylthiazol-5-ylmethyl)phenylaminocarbonyl]benzosulfonic acid] |
| 94% | 59% | CCCc1nc(C)sc1Cc1ccc(NC(=O)c2ccccc2S(=O)(=O)O)cc1 [Example 11, 2-[4-(2-methyl-4-propylthiazol-5-ylmethyl)phenylaminocarbonyl]benzosulfonic acid] |
